In series [1] the test system is M. furfur. Nature of the series: Anti-dandruff efficacy, zone of inhibition. It counts as cell-based, Malassezia furfur. From the text: Comparison of Anti-Dandruff Efficacy Against M. furfur
Series [2] deals with M. furfur. Briefly: Time kill method (ASTM E 2315-16). Conditions: 1% AI. It counts as cell-based, Malassezia furfur. From the text: Time Kill Method (at 1% AI) Against Test Organism M. furfur.
Series [3] has as its system gm +ve and gm −ye micro-organism. Nature of the series: Antibacterial efficacy by MIC, overall conclusion. Type of series: cell-based. How it is done: (§1) The minimum inhibitory concentration (MIC) of an antibacterial is the maximum dilution of the product that will still inhibit the growth of a test microorganism. In Tube/Plate dilution method, serial dilutions of the products are made in bacterial growth media, incubated, and scored for growth. It was determined by Tube/Plate method.

In the next series the test system is Escherichia coli. Briefly: MIC by Tube/Plate dilution method. Type of series: cell-based. Here is the method: as §1
For the next series, the system named is Candida albicans. Briefly: MIC by Tube/Plate dilution method. It counts as cell-based. Here is the method: as §1
Another series deals with Staph. aureus. Nature of the series: MIC by Tube/Plate dilution method. It counts as cell-based. Here is the method:
as §1

The subject of another series is Ps. aeruginosa. Briefly: MIC by Tube/Plate dilution method. It counts as cell-based. Here is the method:
as §1

Data on two compounds can be found in patent publication US11771634B2, “Antimicrobial antifungal composition” (GODREJ INDUSTRIES LIMITED, priority 2021, dated 2023).

Some results are limits rather than exact numbers.

Excerpt for zein (corn protein): The Zein test enables to determine the irritation potential (harshness) of a surfactant-based product (shower gel, shampoo, soap, washing-up liquid, etc.). It consists in making soluble a yellow corn protein that is similar to the keratin present in the skin and hair. The irritation potential of the product is directly proportional to the quantity of dissolved proteins. The Zein Test provides a rapid and convenient screen for irritation potential, especially for compositions that contain surface active agents.
This method involves measuring the solubility of zein (corn protein) in cleansing base solutions as follows.
To 40 mL of samples, 2 f 0.05 g of zein from corn was added. The solutions with zein were shaken in a shaker with water bath (60 min. at 35° C.). The solutions were filtered on Whatman No. 1 filters and then centrifuged at 5000 rpm for 10 min. The nitrogen content in the solutions was determined by Kjeldahl method. One millilitre of the filtrate was mineralized in sulfuric acid (98%) containing copper sulphate pentahydrate and potassium sulphate. After mineralization, the solution was transferred (with 50 mL of Milli-Q water) into the flask of the Wagner-Parnas apparatus. In the next step, 20 mL of sodium hydroxide (25 wt. %) was added. The released ammonia was distilled with steam. […]
The zein number (ZN) was calculated from the equation: ZN=(10−V1)·100·0.7 [mg N/100 mL] […]

Turning to `C=CCCCCCCCCC(=O)NCCC[N+](C)(C)CC(O)COP(=O)([O-])OCC(O)C[N+](C)(C)CCCNC(=O)CCCCCCCCC=C.[Cl-]` (stereo not drawn) [UDAP PB, Undecylenamidopropyl PG-Dimonium Chloride Phosphate], the “Comments (zone of inhibition)” value in the series with M. furfur [1] (Active Conc. 1%) and with M. furfur [1] (Active Conc. 2%) was “Effective” each time. For the same compound, the “Zone of Inhibition (ZOI)” value in the series on M. furfur [1] (Active Conc. 1%) is listed as 28 mm; in the series on M. furfur [1] (Active Conc. 2%), 33 mm. In addition, the “Antimicrobial Activity Log Reduction” value with M. furfur [2] (exposure time 1 minute) and in the series with M. furfur [2] (exposure time 5 minutes) was >4.19 Log each time. In addition, the “Antimicrobial Activity Percentage reduction” value with M. furfur [2] (exposure time 1 minute) and with M. furfur [2] (exposure time 5 minutes) was >99.99% throughout. Further, the “Count of Test Organism After Exposure CFU/ml” value in the series with M. furfur [2] (exposure time 1 minute) and in the series on M. furfur [2] (exposure time 5 minutes) was <10 CFU/ml each time. Moreover, the “Count of Test Organism After Exposure Log” value in the series with M. furfur [2] (exposure time 1 minute) and with M. furfur [2] (exposure time 5 minutes) was <1 Log in each case. In addition, the “Antibacterial efficacy” value in series [3] is on record as “effective antibacterial”. Also, the “Zein Number (ZN)” value in the series on zein (corn protein) is given as 36 mg N/100 mL. Moreover, the MIC with Escherichia coli is listed as <300 ppm; against Candida albicans, <200 ppm; with Staph. aureus it was <300 ppm; in the series with Ps. aeruginosa, <700 ppm.
For “zinc pyrithione [ZnPTO, reference compound]”, in the series with M. furfur [1] (Active Conc. 1%), the “Comments (zone of inhibition)” value is recorded as “Effective” and the “Zone of Inhibition (ZOI)” value came to 34 mm. In the series on M. furfur [1] (Active Conc. 2%), the “Comments (zone of inhibition)” value is on record as “Effective” and the “Zone of Inhibition (ZOI)” value worked out at 41 mm. Besides, in the series on M. furfur [2] (exposure time 1 minute), the “Antimicrobial Activity Log Reduction” value is on record as >3.95 Log, the “Antimicrobial Activity Percentage reduction” value was >99.98%, the “Count of Test Organism After Exposure CFU/ml” value is <10 CFU/ml and the “Count of Test Organism After Exposure Log” value is given as <1 Log. Moreover, in the series on M. furfur [2] (exposure time 5 minutes), the “Antimicrobial Activity Log Reduction” value was >3.95 Log, the “Antimicrobial Activity Percentage reduction” value is >99.98%, the “Count of Test Organism After Exposure CFU/ml” value was <10 CFU/ml and the “Count of Test Organism After Exposure Log” value is <1 Log.
